Measured values: US9796733B2, “Imidazo-pyrazine derivatives useful as soluble guanylate cyclase activators” (Merck Sharp & Dohme Corp., priority 2014, dated 2017)

Experiments:
sGC α1/β1 heterodimer = molecular target: T1, sGC α1/β1 heterodimer (Homo sapiens, UniProt Q02108+Q02153); assay: Cell-based sGC functional assay (CASA assay): cGMP generation in CHO-K1/sGC cells, HTRF detection; settings: for Emax: CHO-K1, percent activation relative to standard Compound A in CHO-K1/sGC cells, read-out: % Act.; for EC50: inflection point (IP) of cGMP generation in CHO-K1/sGC cells, 4P fit, activity expressed as percentage of Compound A
T1 construct: expressed in transfected cells; host or cells: CHO-K1 (clone #7, CHO-K1/sGC)
T1 sequence (Q02108 1-690): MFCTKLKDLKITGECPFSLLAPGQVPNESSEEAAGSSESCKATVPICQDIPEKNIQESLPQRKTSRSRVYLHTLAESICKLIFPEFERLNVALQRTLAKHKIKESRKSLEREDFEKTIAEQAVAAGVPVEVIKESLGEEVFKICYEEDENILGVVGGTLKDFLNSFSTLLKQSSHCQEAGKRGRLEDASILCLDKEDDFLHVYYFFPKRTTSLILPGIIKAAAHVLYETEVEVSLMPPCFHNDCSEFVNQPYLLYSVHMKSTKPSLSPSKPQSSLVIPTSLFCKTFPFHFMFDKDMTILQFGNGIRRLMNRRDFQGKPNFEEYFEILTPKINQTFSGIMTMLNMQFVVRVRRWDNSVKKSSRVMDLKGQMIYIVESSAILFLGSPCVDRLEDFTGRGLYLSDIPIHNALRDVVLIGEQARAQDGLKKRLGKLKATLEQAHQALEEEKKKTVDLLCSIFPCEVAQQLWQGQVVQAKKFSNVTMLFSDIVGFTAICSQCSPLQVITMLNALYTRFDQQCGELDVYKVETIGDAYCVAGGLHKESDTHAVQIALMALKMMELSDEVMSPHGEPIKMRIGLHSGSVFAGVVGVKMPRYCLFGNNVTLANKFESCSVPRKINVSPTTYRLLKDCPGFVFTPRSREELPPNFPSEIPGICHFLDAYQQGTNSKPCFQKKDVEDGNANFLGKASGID
T1 sequence (Q02153 1-619): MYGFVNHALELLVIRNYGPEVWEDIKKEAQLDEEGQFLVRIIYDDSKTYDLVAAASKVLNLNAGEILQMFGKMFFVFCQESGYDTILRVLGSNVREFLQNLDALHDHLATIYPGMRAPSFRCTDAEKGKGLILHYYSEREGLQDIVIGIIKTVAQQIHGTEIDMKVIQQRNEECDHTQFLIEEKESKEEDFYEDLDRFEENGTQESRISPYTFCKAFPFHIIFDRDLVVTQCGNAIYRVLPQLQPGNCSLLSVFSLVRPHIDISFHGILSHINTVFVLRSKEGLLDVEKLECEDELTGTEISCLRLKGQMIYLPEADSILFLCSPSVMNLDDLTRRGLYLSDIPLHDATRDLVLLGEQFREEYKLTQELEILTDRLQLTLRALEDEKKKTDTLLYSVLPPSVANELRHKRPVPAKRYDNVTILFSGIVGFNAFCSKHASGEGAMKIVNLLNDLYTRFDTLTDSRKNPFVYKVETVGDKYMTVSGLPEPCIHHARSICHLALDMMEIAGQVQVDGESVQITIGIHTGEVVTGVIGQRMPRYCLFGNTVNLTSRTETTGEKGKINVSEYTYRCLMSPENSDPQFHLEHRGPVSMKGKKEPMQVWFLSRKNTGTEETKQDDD
In short: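 Stable CHO-K1/sGC cells in EBSS buffer with 5 mM MgCl2, 0.05% BSA and 0.5 mM IBMX were incubated with compound (2.5% DMSO final) ±1 μM DETA-NO for 1 hr at 37° C. cGMP was measured by HTRF. Activation is expressed as % of reference HDA Compound A maximum, with IP and max fold induction from a 4P fit.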

[1] = system: Spontaneously hypertensive rats (SHR); assay: Acute efficacy in spontaneously hypertensive rats (SHR): telemetry blood pressure lowering after a single oral dose; format: in vivo, rat
In short: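 Male SHR carrying aortic telemetry implants (14-day recovery) received a single oral gavage of compound or vehicle (10% transcutol/20% Cremophor/70% water). Conscious blood pressure was sampled 30 s every 10 min and averaged hourly; change was taken against the prior-day vehicle baseline, reported as maximum peak SBP decrease at a given PO dose (mpk).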

SMILES | Emax (sGC α1/β1 heterodimer) [%] | EC50 (sGC α1/β1 heterodimer) [nM] | Maximum peak decrease of systolic blood pressure (SBP) in SHR, Cat. ([1]; P.O. 1.0 mpk) | Maximum peak decrease of systolic blood pressure (SBP) in SHR, Cat. ([1]; P.O. 3.0 mpk) | Maximum peak decrease of systolic blood pressure (SBP) in SHR, Cat. ([1]; P.O. 0.3 mpk)
CCCc1nc(-c2nc(N)c3c(n2)NC(=O)C3(C)c2ccc(C(F)(F)F)cc2)cn2ccnc12 (stereo not drawn) [Example 131B, 4-amino-5-methyl-2-(8-propylimidazo[1,2-a]pyrazin-6-yl)-5-(4-(trifluoromethyl)phenyl)-5H-pyrrolo[2,3-d]pyrimidin-6(7H)-one] | 88 | 178 | B (Category B=SBP in SHRs 20-40 mmHg) |  | 
CCCc1nc(-c2nc(N)c3c(n2)NC(=O)C3(C)c2ccc(C(F)(F)F)cn2)cn2ccnc12 (stereo not drawn) [Example 132B, 4-amino-5-methyl-2-(8-propylimidazo[1,2-a]pyrazin-6-yl)-5-(5-(trifluoromethyl)pyridin-2-yl)-5H-pyrrolo[2,3-d]pyrimidin-6(7H)-one] | 99 | 949 |  | B (Category B=SBP in SHRs 20-40 mmHg) | 
CC1(c2ccc(F)cc2)C(=O)Nc2nc(-c3cn4ccnc4cn3)nc(N)c21 (stereo not drawn) [Example 134A, 4-amino-5-(4-fluorophenyl)-2-(imidazo[1,2-a]pyrazin-6-yl)-5-methyl-5H-pyrrolo[2,3-d]pyrimidin-6(7H)one] | 118 | 627 |  | B (Category B=SBP in SHRs 20-40 mmHg) | 
CC1(c2ccc(Br)cc2)C(=O)Nc2nc(-c3cn4ccnc4cn3)nc(N)c21 (stereo not drawn) [Example 135A, 4-amino-5-(4-bromophenyl)-2-(imidazo[1,2-a]pyrazin-6-yl)-5-methyl-5H-pyrrolo[2,3-d]pyrimidin-6(7H)-one] | 148 | 57 | B (Category B=SBP in SHRs 20-40 mmHg) |  | 
CC1(c2ccc(Cl)cc2F)C(=O)Nc2nc(-c3cn4ccnc4cn3)nc(N)c21 (stereo not drawn) [Example 136A, 4-amino-5-(4-chloro-2-fluorophenyl)-2-(imidazo[1,2-a]pyrazin-6-yl)-5-methyl-5H-pyrrolo[2,3-d]pyrimidin-6(7H)-one] | 129 | 77 | B (Category B=SBP in SHRs 20-40 mmHg) |  | 
Nc1nc(-c2cn3ccnc3cn2)nc2c1C(c1ccc(Cl)c(F)c1)(C1CC1)C(=O)N2 (stereo not drawn) [Example 137B, 4-amino-5-(4-chloro-3-fluorophenyl)-5-cyclopropyl-2-(imidazo[1,2-a]pyrazin-6-yl)-5H-pyrrolo[2,3-d]pyrimidin-6(7H)-one] | 108 | 135 | B (Category B=SBP in SHRs 20-40 mmHg) |  | 
CC1(c2ccc(Cl)c(Cl)c2)C(=O)Nc2nc(-c3cn4ccnc4cn3)nc(N)c21 (stereo not drawn) [Example 138A, 4-amino-5-(3,4-dichlorophenyl)-2-(imidazo[1,2-a]pyrazin-6-yl)-5-methyl-5H-pyrrolo[2,3-d]pyrimidin-6(7H)-one] | 151 | 369 |  | B (Category B=SBP in SHRs 20-40 mmHg) | 
CC1(c2ccc(F)cc2F)C(=O)Nc2nc(-c3cn4ccnc4cn3)nc(N)c21 (stereo not drawn) [Example 139A, 4-amino-5-(2,4-difluorophenyl)-2-(imidazo[1,2-a]pyrazin-6-yl)-5-methyl-5H-pyrrolo[2,3-d]pyrimidin-6(7H)-one] | 118 | 222 |  | C (Category C=SBP in SHRs>40 mmHg) | 
CC1(c2ccc(Cl)c(F)c2)C(=O)Nc2nc(-c3cn4ccnc4cn3)nc(N)c21 (stereo not drawn) [Example 140B, 4-amino-5-(4-chloro-3-fluorophenyl)-2-(imidazo[1,2-a]pyrazin-6-yl)-5-methyl-5H-pyrrolo[2,3-d]pyrimidin-6(7H)-one] | 107 | 217 |  |  | B (Category B=SBP in SHRs 20-40 mmHg)
CC1(c2ccc(F)c(F)c2)C(=O)Nc2nc(-c3cn4ccnc4cn3)nc(N)c21 (stereo not drawn) [Example 141B, 4-amino-5-(3,4-difluorophenyl)-2-(imidazo[1,2-a]pyrazin-6-yl)-5-methyl-5H-pyrrolo[2,3-d]pyrimidin-6(7H)-one] | 112 | 236 |  | B (Category B=SBP in SHRs 20-40 mmHg) | 
CC1(c2ccc(C(F)(F)F)cc2)C(=O)Nc2nc(-c3cn4ccnc4cn3)nc(N)c21 (stereo not drawn) [Example 143B, 4-amino-2-(imidazo[1,2-a]pyrazin-6-yl)-5-methyl-5-(4-(trifluoromethyl)phenyl)-5H-pyrrolo[2,3-d]pyrimidin-6(7H)-one] | 78 | 252 |  | B (Category B=SBP in SHRs 20-40 mmHg) | 

Second part, led by results:

Emax (sGC α1/β1 heterodimer) [%] | EC50 (sGC α1/β1 heterodimer) [nM] | SMILES | Maximum peak decrease of systolic blood pressure (SBP) in SHR, Cat. ([1]; P.O. 1.0 mpk) | Maximum peak decrease of systolic blood pressure (SBP) in SHR, Cat. ([1]; P.O. 3.0 mpk) | Maximum peak decrease of systolic blood pressure (SBP) in SHR, Cat. ([1]; P.O. 0.3 mpk)
117 | 400 | CC1(c2ccc(Cl)cc2)C(=O)Nc2nc(-c3cn4ccnc4cn3)nc(N)c21 (stereo not drawn) [Example 144A, 4-amino-5-(4-chlorophenyl)-2-(imidazo[1,2-a]pyrazin-6-yl)-5-methyl-5H-pyrrolo[2,3-d]pyrimidin-6(7H)-one] | B (Category B=SBP in SHRs 20-40 mmHg) |  | 
120 | 85 | CC1(c2ccc(F)cc2)C(=O)Nc2nc(-c3cn4cc(C(F)(F)F)nc4c(Cc4ccccc4)n3)nc(N)c21 (stereo not drawn) [Example 154A, 4-amino-2-(8-benzyl-2-(trifluoromethyl)imidazo[1,2-a]pyrazin-6-yl)-5-(4-fluorophenyl)-5-methyl-5H-pyrrolo[2,3-d]pyrimidin-6(7H)-one] | A (Category A=SBP in SHRs<20 mmHg) |  | 
90 | 227 | CC1(c2ccc(F)cc2)C(=O)Nc2nc(-c3cn4cc(C5CC5)nc4c(CCC(F)(F)C(F)(F)F)n3)nc(N)c21 (stereo not drawn) [Example 157A, 4-amino-2-(2-cyclopropyl-8-(3,3,4,4,4-pentafluorobutyl)imidazo [1,2-a]pyrazin-6-yl)-5-(4-fluorophenyl)-5-methyl-5H-pyrrolo[2,3-d]pyrimidin-6(7H)-one] |  | B (Category B=SBP in SHRs 20-40 mmHg) | 
103 | 552 | CCc1cn2cc(-c3nc(N)c4c(n3)NC(=O)C4(C)c3ccc(F)cc3)nc(CCC(F)(F)C(F)(F)F)c2n1 (stereo not drawn) [Example 159A, 4-amino-2-(2-ethyl-8-(3,3,4,4,4-pentafluorobutyl)imidazo [1,2-a]pyrazin-6-yl)-5-(4-fluorophenyl)-5-methyl-5H-pyrrolo[2,3-d]pyrimidin-6(7H)-one] |  | A (Category A=SBP in SHRs<20 mmHg) | 
94 | 120 | CCCCc1nc(-c2nc(N)c3c(n2)NC(=O)C3(C)c2ccc(C(F)(F)F)cn2)cn2cc(C)nc12 (stereo not drawn) [Example 166B, 4-amino-2-(8-butyl-2-methylimidazo[1,2-a]pyrazin-6-yl)-5-methyl-5-(5-(trifluoromethyl)pyridin-2-yl)-5H-pyrrolo[2,3-d]pyrimidin-6(7H)-one] | A (Category A=SBP in SHRs<20 mmHg) |  | 
97 | 150 | CCCCc1nc(-c2nc(N)c3c(n2)NC(=O)C3(C)c2ccc(Cl)cn2)cn2cc(C)nc12 (stereo not drawn) [Example 168A, 4-amino-2-(8-butyl-2-methylimidazo[1,2-a]pyrazin-6-yl)-5-(5-chloropyridin-2-yl)-5-methyl-5H-pyrrolo[2,3-d]pyrimidin-6(7H)-one] | B (Category B=SBP in SHRs 20-40 mmHg) |  | 
